Target: human TYK2 (JH2domain-pseudokinase) (Homo sapiens (Human), UniProt P29597)
Test: TYK2 JH2 Domain Binding Assay (KINOMEscan)
Conditions: 11-point 3-fold dilution, top concentration 30,000 nM, duplicate
Experimental: Binding constants for compounds of the present invention against the JH2 domain were determined by the following protocol for a KINOMEscan® assay (DiscoveRx). A fusion protein of a partial length construct of human TYK2 (JH2domain-pseudokinase) (amino acids G556 to D888 based on reference sequence NP_003322.3) and the DNA binding domain of NFkB was expressed in transiently transfected HEK293 cells. From these HEK 293 cells, extracts were prepared in M-PER extraction buffer (Pierce) in the presence of Protease Inhibitor Cocktail Complete (Roche) and Phosphatase Inhibitor Cocktail Set II (Merck) per manufacturers' instructions. The TYK2(JH2domain-pseudokinase) fusion protein was labeled with a chimeric double-stranded DNA tag containing the NFkB binding site (5′-GGGAATTCCC-3′) fused to an amplicon for qPCR readout, which was added directly to the expression extract (the final concentration of DNA-tag in the binding reaction is 0.1 nM).
Streptavidin-coated magnetic beads (Dynal M280) were treated with a biotinylated small molecule ligand for 30 minutes at room temperature to generate affinity resins for the binding assays. The liganded beads were blocked with excess biotin and washed with blocking buffer (SeaBlock (Pierce), 1% BSA, 0.05% Tween 20, 1 mM DTT) to remove unbound ligand and to reduce nonspecific binding.
The binding reaction was assembled by combining 16 μl of DNA-tagged kinase extract, 3.8 μl liganded affinity beads, and 0.18 μl test compound (PBS/0.05% Tween 20/10 mM DTT/0.1% BSA/2 μg/ml sonicated salmon sperm DNA). Extracts were used directly in binding assays without any enzyme purification steps at a ≥10,000-fold overall stock dilution (final DNA-tagged enzyme concentration <0.1 nM). Extracts were loaded with DNA-tag and diluted into the binding reaction in a two step process. First extracts were diluted 1:100 in 1× binding buffer (PBS/0.05% Tween 20/10 mM DTT/0.1% BSA/2 μg/ml sonicated salmon sperm DNA) containing 10 nM DNA-tag. This dilution was allowed to equilibrate at room temperature for 15 minutes and then subsequently diluted 1:100 in 1× binding buffer. All reactions were performed in polypropylene 384-well plates. Each was a final volume of 0.02 mL. Assays were incubated with shaking for 1 hour at room temperature. Then the beads were pelleted and washed with wash buffer (1×PBS, 0.05% Tween 20) to remove displaced kinase and test compound. The washed based were re-suspended in elution buffer (1×PBS, 0.05% Tween 20, 0.5 μM non-biotinylated affinity ligand) and incubated at room temperature with shaking for 30 minutes. The kinase concentration in the eluates was measured by qPCR. qPCR reactions were assembled by adding 2.5 μL of kinase eluate to 7.5 μL of qPCR master mix containing 0.15 μM amplicon primers and 0.15 μM amplicon probe. The qPCR protocol consisted of a 10 minute hot start at 95° C., followed by 35 cycles of 95° C. for 15 seconds, 60° C. for 1 minute.
Test compounds were prepared as 111× stocks in 100% DMSO. Kd values were determined using an 11-point 3-fold compound dilution series with three DMSO control points. All compounds for Kd measurements are distributed by acoustic transfer (non-contact dispensing) in 100% DMSO. The compounds were then diluted directly into the assays such that the final concentration of DMSO was 0.9%. The Kd values were determined using a compound top concentration of 30,000 nM. Kd measurements were performed in duplicate.
Binding constants (Kds) were calculated with a standard dose-response curve using the Hill equation: […]
The Hill Slope was set to −1. Curves were fitted using a non-linear least square fit with the Levenberg-Marquardt algorithm (Levenberg, K., A method for the solution of certain non-linear problems in least squares, Q. Appl. Math. 2, 164-168 (1944)).

human TYK2 (JH2domain-pseudokinase), sequence (P29597 556-888): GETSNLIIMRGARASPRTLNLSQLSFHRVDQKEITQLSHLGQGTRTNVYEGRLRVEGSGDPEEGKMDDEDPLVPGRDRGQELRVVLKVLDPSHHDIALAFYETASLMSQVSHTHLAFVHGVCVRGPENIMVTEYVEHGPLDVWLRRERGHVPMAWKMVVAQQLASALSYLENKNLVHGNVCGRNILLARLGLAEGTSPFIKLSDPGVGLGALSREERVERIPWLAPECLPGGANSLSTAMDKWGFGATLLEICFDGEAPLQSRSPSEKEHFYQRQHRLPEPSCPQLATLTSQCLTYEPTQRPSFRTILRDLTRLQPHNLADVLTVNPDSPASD

Kd [nM] | SMILES
0.2 to 1 | CCc1csc(-c2cc3c(C(=O)NC)cnc(NC(=O)C4CC4)c3[nH]2)n1 [Compound I-70, 7-(cyclopropanecarboxamido)-2-(4-ethylthiazol-2-yl)-N-methyl-1H-pyrrolo[2,3-c]pyridine-4-carboxamide]
< 0.2 | CNC(=O)c1cnc(NC(=O)C2CC2)c2[nH]c(-c3ccc(-c4ncc5n4CCCC5)cc3F)cc12 [Compound I-75, 7-(cyclopropanecarboxamido)-2-(2-fluoro-4-(5,6,7,8-tetrahydroimidazo[1,5-a]pyridin-3-yl)phenyl)-N-methyl-1H-pyrrolo[2,3-c]pyridine-4-carboxamide]
< 0.2 | CNC(=O)c1cnc(NC(=O)C2CC2)c2[nH]c(-c3cccc(-c4cn(C)c(C)n4)c3F)cc12 [Compound I-67]
> 10 | CNC(=O)c1cnc(NC(=O)C2CC2)c2[nH]c(-c3ccc(OC)cc3[C@@H]3COCCO3)cc12 [Compound I-72]
< 0.2 | CNC(=O)c1cnc(NC(=O)C2CC2)c2[nH]c(-c3c(F)cc(-c4nccn4C)cc3N3CC[C@@H](OC)C3)cc12 [Compound I-90, (R)-7-(cyclopropanecarboxamido)-2-(2-fluoro-6-(3-methoxypyrrolidin-1-yl)-4-(1-methyl-1H-imidazol-2-yl)phenyl)-N-methyl-1H-pyrrolo[2,3-c]pyridine-4-carboxamide]
< 0.2 | CNC(=O)c1cnc(Nc2ccn(C)n2)c2[nH]c(-c3cccc(-c4cn5c(n4)COCC5)c3F)cc12 [Compound I-100, 2-(3-(5,6-dihydro-8H-imidazo[2,1-c][1,4]oxazin-2-yl)-2-fluorophenyl)-N-methyl-7-((1-methyl-1H-pyrazol-3-yl)amino)-1H-pyrrolo[2,3-c]pyridine-4-carboxamide]
< 0.2 | CNC(=O)c1cnc(NC(=O)C2CC2)c2[nH]c(-c3ccc(-c4cnccn4)cc3F)cc12 [Compound I-66, 7-(cyclopropanecarboxamido)-2-(2-fluoro-4-(pyrazin-2-yl)phenyl)-N-methyl-1H-pyrrolo[2,3-c]pyridine-4-carboxamide]
> 10 | CNC(=O)c1cnc(NC(=O)C2CC2)c2[nH]c(-c3ccc(OC)cc3[C@H]3COCCO3)cc12 [Compound I-71]
< 0.2 | CCOc1cc(-c2nccn2C)cc(F)c1-c1cc2c(C(=O)NC)cnc(NC(=O)C3CC3)c2[nH]1 [Compound I-78, 7-(cyclopropanecarboxamido)-2-(2-ethoxy-6-fluoro-4-(1-methyl-1H-imidazol-2-yl)phenyl)-N-methyl-1H-pyrrolo[2,3-c]pyridine-4-carboxamide]
0.2 to 1 | CNC(=O)c1cnc(NC(=O)C2CC2)c2[nH]c(-c3cccc(-c4nnn(C)n4)c3OC)cc12 [Compound I-59, 7-(cyclopropanecarboxamido)-2-(2-methoxy-3-(2-methyl-2H-tetrazol-5-yl)phenyl)-N-methyl-1H-pyrrolo[2,3-c]pyridine-4-carboxamide]
< 0.2 | CNC(=O)c1cnc(NC(=O)C2CC2)c2[nH]c(-c3ccc(-n4ncnc4C)cc3F)cc12 [Compound I-65, 7-(cyclopropanecarboxamido)-2-(2-fluoro-4-(5-methyl-1H-1,2,4-triazol-1-yl)phenyl)-N-methyl-1H-pyrrolo[2,3-c]pyridine-4-carboxamide]
0.2 to 1 | CNC(=O)c1cnc(NC(=O)C2CC2)c2[nH]c(-c3ccc(C4COCCO4)cc3OC)cc12 (centres unmarked) [Compound I-89, 2-(4-(1,4-dioxan-2-yl)-2-methoxyphenyl)-7-(cyclopropanecarboxamido)-N-methyl-1H-pyrrolo[2,3-c]pyridine-4-carboxamide]
0.2 to 1 | CNC(=O)c1cnc(NC(=O)C2CC2)c2[nH]c(-c3ccc(C(=O)N4CC(F)(F)C4)cn3)cc12 [Compound I-53, 7-(cyclopropanecarboxamido)-2-(5-(3,3-difluoroazetidine-1-carbonyl)pyridin-2-yl)-N-methyl-1H-pyrrolo[2,3-c]pyridine-4-carboxamide]
< 0.2 | CNC(=O)c1cnc(NC(=O)C2CC2)c2[nH]c(-c3ccc(-c4nccn4C)cc3F)cc12 [Compound I-58, 7-(cyclopropanecarboxamido)-2-(2-fluoro-4-(1-methyl-1H-imidazol-2-yl)phenyl)-N-methyl-11H-pyrrolo[2,3-c]pyridine-4-carboxamide]
0.2 to 1 | CNC(=O)c1cnc(NC(=O)C2CC2)c2[nH]c(-c3cccn(C4CCCOC4)c3=O)cc12 (centres unmarked) [Compound I-43, 7-(cyclopropanecarboxamido)-N-methyl-2-(2-oxo-1-(tetrahydro-2H-pyran-3-yl)-1,2-dihydropyridin-3-yl)-1H-pyrrolo[2,3-c]pyridine-4-carboxamide]
< 0.2 | CNC(=O)c1cnc(NC(=O)C2CC2)c2[nH]c(-c3ccn(-c4cnn(C)c4)n3)cc12 [Compound I-80, 7-(cyclopropanecarboxamido)-N-methyl-2-(1′-methyl-1′H-[1,4′-bipyrazol]-3-yl)-1H-pyrrolo[2,3-c]pyridine-4-carboxamide]
0.2 to 1 | CNC(=O)c1cnc(NC(=O)C2CC2)c2[nH]c(-c3cccc(-c4cnn(C)c4)c3C#N)cc12 [Compound I-45, 2-(2-cyano-3-(1-methyl-1H-pyrazol-4-yl)phenyl)-7-(cyclopropane-carboxamido)-N-methyl-1H-pyrrolo[2,3-c]pyridine-4-carboxamide]
0.2 to 1 | CNC(=O)c1cnc(NC(=O)C2CC2)c2[nH]c(-c3cccn(C4CCCOC4)c3=O)cc12 (stereo in doubt) [Compound I-56, (R)-7-(cyclopropanecarboxamido)-N-methyl-2-(2-oxo-1-(tetrahydro-2H-pyran-3-yl)-1,2-dihydropyridin-3-yl)-1H-pyrrolo[2,3-c]pyridine-4-carboxamide]
< 0.2 | CNC(=O)c1cnc(Nc2ccn(C)n2)c2[nH]c(-c3cccc(-c4cnn(C)c4)c3F)cc12 [Compound I-97, 2-(2-fluoro-3-(1-methyl-1H-pyrazol-4-yl)phenyl)-N-methyl-7-((1-methyl-1H-pyrazol-3-yl)amino)-1H-pyrrolo[2,3-c]pyridine-4-carboxamide]
> 10 | CNC(=O)c1cnc(NC(=O)C2CC2)c2[nH]c(N3CCCCC3)cc12 [Compound I-96, 7-(cyclopropanecarboxamido)-N-methyl-2-(piperidin-1-yl)-1H-pyrrolo[2,3-c]pyridine-4-carboxamide]
< 0.2 | CNC(=O)c1cnc(NC(=O)C2CC2)c2[nH]c(-c3cccc(-c4cn5c(n4)CCC5)c3F)cc12 [Compound I-69, 7-(cyclopropanecarboxamido)-2-(3-(6,7-dihydro-5H-pyrrolo[1,2-a]imidazol-2-yl)-2-fluorophenyl)-N-methyl-1H-pyrrolo[2,3-c]pyridine-4-carboxamide]
< 0.2 | CNC(=O)c1cnc(NC(=O)C2CC2)c2[nH]c(-c3ccc(-c4nncn4C)cc3F)cc12 [Compound I-62, 7-(cyclopropanecarboxamido)-2-(2-fluoro-4-(4-methyl-4H-1,2,4-triazol-3-yl)phenyl)-N-methyl-1H-pyrrolo[2,3-c]pyridine-4-carboxamide]
0.2 to 1 | CNC(=O)c1cnc(NC(=O)C2CC2)c2[nH]c(-c3ncc(C(=O)N(C)C)cc3F)cc12 [Compound I-51, 7-(cyclopropanecarboxamido)-2-(5-(dimethylcarbamoyl)-3-fluoropyridin-2-yl)-N-methyl-1H-pyrrolo[2,3-c]pyridine-4-carboxamide]
